Measured values published in patent US11066414B2, “Cot modulators and methods of use thereof” (Gilead Sciences, Inc., priority 2015, dated 2021).
Like-named read-outs stand apart in the source and are kept apart here.

Columns and labels:
[1] = system: TNFα; test: Cot Monocyte TNFα Cell Based Assay; details: read-out: EC50 TNF; LPS-stimulated human monocytes, TNFα TR-FRET
[2] = molecular target: Human Cot (Homo sapiens (Human), UniProt P41279); test: High Throughput Cot Biochemical Assay
[3] = read-out: IC50 HTRF, Cot HTRF (TR-FRET KinEASE) biochemical assay, 400 μM ATP
[4] = IC50 HTRF, Cot HTRF (TR-FRET) biochemical assay
[5] = read-out: IC50 HTRF, Cot HTRF (TR-FRET) biochemical assay
[6] = IC50 HTRF, Cot HTRF (TR-FRET KinEASE) biochemical assay, 400 μM ATP

Human Cot, sequence (P41279 30-397): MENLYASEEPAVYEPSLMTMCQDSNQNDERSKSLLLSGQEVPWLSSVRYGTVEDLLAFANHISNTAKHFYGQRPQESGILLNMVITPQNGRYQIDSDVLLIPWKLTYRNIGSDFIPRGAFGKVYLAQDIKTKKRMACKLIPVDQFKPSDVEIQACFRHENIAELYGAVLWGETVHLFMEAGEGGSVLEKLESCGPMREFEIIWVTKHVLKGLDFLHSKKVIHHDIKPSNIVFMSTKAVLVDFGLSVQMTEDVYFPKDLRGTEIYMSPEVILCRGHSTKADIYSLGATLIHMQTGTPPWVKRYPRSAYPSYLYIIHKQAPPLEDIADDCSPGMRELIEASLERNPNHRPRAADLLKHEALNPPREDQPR

IC50 [2, 4] [nM]	IC50 [2, 6] [nM]	Molecule	further results
9	–	CC(C)(C)CNc1c(C#N)cnc2c(Cl)cc(N[C@H](c3cn(C4(C(F)(F)F)CC4)nn3)c3ccc(F)c4ncccc34)cc12 [Example 617, (S)-8-chloro-6-(((8-fluoroquinolin-5-yl)(1-(1-(trifluoromethyl)cyclopropyl)-1H-1,2,3-triazol-4-yl)methyl)amino)-4-(neopentylamino)quinoline-3-carbonitrile]	–
2	–	Cc1nc(F)ccc1[C@H](Nc1cc(C#N)c2ncc(C#N)c(NCC(C)(C)C)c2c1)c1cn(C23CC(C2)C3)nn1 [Example 649, (S)-6-(((1-(bicyclo[1.1.1]pentan-1-yl)-1H-1,2,3-triazol-4-yl)(6-fluoro-2-methylpyridin-3-yl)methyl)amino)-4-(neopentylamino)quinoline-3,8-dicarbonitrile]	–
4	–	CC(C)(C)CNc1c(C#N)cnc2c(Cl)cc(N[C@H](c3cn(C4(C(F)F)CC4)nn3)c3ccc(F)c4ncccc34)cc12 [Example 653, (S)-8-chloro-6-(((1-(1-(difluoromethyl)cyclopropyl)-1H-1,2,3-triazol-4-yl)(8-fluoroquinolin-5-yl)methyl)amino)-4-(neopentylamino)quinoline-3-carbonitrile]	–
4	–	Cc1nc(F)ccc1[C@H](Nc1cc(Cl)c2ncc(C#N)c(NCC(C)(C)C)c2c1)c1nnn(C2CC2)c1C#N [Example 686, (S)-8-chloro-6-(((5-cyano-1-cyclopropyl-1H-1,2,3-triazol-4-yl)(6-fluoro-2-methylpyridin-3-yl)methyl)amino)-4-(neopentylamino)quinoline-3-carbonitrile]	–
2	–	Cn1ccc2c([C@H](Nc3cc(Cl)c4ncc(C#N)c(NCC(C)(C)C(F)(F)F)c4c3)c3cn(C4(C5CC5)CC4)nn3)cccc2c1=O [Example 783, (S)-6-(((1-([1,1′-bi(cyclopropan)]-1-yl)-1H-1,2,3-triazol-4-yl)(2-methyl-1-oxo-1,2-dihydroisoquinolin-5-yl)methyl)amino)-8-chloro-4-((3,3,3-trifluoro-2,2-dimethylpropyl)amino)quinoline-3-carbonitrile]	–
2	–	Cn1ccc2c([C@H](Nc3cc(Cl)c4ncc(C#N)c(NCC(C)(C)C(F)(F)F)c4c3)c3cn(C45CC(C4)C5)nn3)cccc2c1=O [Example 785, (S)-6-(((1-(bicyclo[1.1.1]pentan-1-yl)-1H-1,2,3-triazol-4-yl)(2-methyl-1-oxo-1,2-dihydroisoquinolin-5-yl)methyl)amino)-8-chloro-4-((3,3,3-trifluoro-2,2-dimethylpropyl)amino)quinoline-3-carbonitrile]	–
5	–	Cn1c(=O)ccc2c([C@H](Nc3cc(Cl)c4ncc(C#N)c(NCC(C)(C)C)c4c3)c3cn(C45CC(C4)C5)nn3)cccc21 [Example 786, (S)-6-(((1-(bicyclo[1.1.1]pentan-1-yl)-1H-1,2,3-triazol-4-yl)(1-methyl-2-oxo-1,2-dihydroquinolin-5-yl)methyl)amino)-8-chloro-4-(neopentylamino)quinoline-3-carbonitrile]	–
3	–	CC1(n2cc([C@@H](Nc3cc(Cl)c4ncc(C#N)c(NCC(C)(C)C(F)(F)F)c4c3)c3cccc4ncccc34)nn2)CC1 [Example 797, (S)-8-chloro-6-(((1-(1-methylcyclopropyl)-1H-1,2,3-triazol-4-yl)(quinolin-5-yl)methyl)amino)-4-((3,3,3-trifluoro-2,2-dimethylpropyl)amino)quinoline-3-carbonitrile]	–
–	3	CC(C)(CNc1c(C#N)cnc2c(C#N)cc(N[C@H](c3cn(C4(C(F)F)CC4)nn3)c3ccc(F)c4ncccc34)cc12)C(F)(F)F [Example 815, (S)-6-(((1-{1-(difluoromethyl)-cyclopropyl)-1H-1,2,3-triazol-4-yl)(8-fluoroquinolin-5-yl)methyl)amino)-4-((3,3,3-trifluoro-2,2-dimethylpropyl)amino)quinoline-3,8-dicarbonitrile]	–
–	1	CC(C)(CNc1c(C#N)cnc2c(C#N)cc(N[C@H](c3cn(C45CC(C4)C5)nn3)c3ccc(F)c4ncccc34)cc12)C(F)(F)F [Example 816, (S)-6-(((1-(bicyclo[1.1.1]pentan-1-yl)-1H-1,2,3-triazol-4-yl)(8-fluoroquinolin-5-yl)methyl)amino)-4-((3,3,3-trifluoro-2,2-dimethylpropyl)amino)quinoline-3,8-dicarbonitrile]	–
–	5	Cn1ccc2c([C@H](Nc3cc(C#N)c4ncc(C#N)c(NCC(C)(C)C)c4c3)c3cn(C4(C(F)F)CC4)nn3)ccnc21 [Example 873, (S)-6-(((1-(1-(difluoromethyl)cyclopropyl)-1H-1,2,3-triazol-4-yl)(1-methyl-1H-pyrrolo[2,3-b]pyridin-4-yl)methyl)amino)-4-(neopentylamino)quinoline-3,8-dicarbonitrile]	–
–	4	Cc1nc(F)ccc1[C@H](Nc1cc(C#N)c2ncc(C#N)c(NCC(C)(C)C)c2c1)c1nnn(C)c1F [Example 906, (S)-6-(((5-fluoro-1-methyl-1H-1,2,3-triazol-4-yl)(6-fluoro-2-methylpyridin-3-yl)methyl)amino)-4-(neopentylamino)quinoline-3,8-dicarbonitrile]	–
–	3	Cc1nc(F)ccc1[C@H](Nc1cc(Cl)c2ncc(C#N)c(NCC(C)(C)C)c2c1)c1nnn(C2(C)CC2)c1F [Example 947, (S)-8-chloro-6-(((5-fluoro-1-(1-methylcyclopropyl)-1H-1,2,3-triazol-4-yl)(6-fluoro-2-methyl-pyridin-3-yl)methyl)amino)-4-(neopentylamino)quinoline-3-carbonitrile]	–
–	2	Cc1nc(F)ccc1[C@H](Nc1cc(Cl)c2ncc(C#N)c(NCC(C)(C)C(F)(F)F)c2c1)c1nnn(C2CC2)c1F [Example 958, (S)-8-chloro-6-(((1-cyclopropyl-5-fluoro-1H-1,2,3-triazol-4-yl)(6-fluoro-2-methylpyridin-3-yl)methyl)amino)-4-((3,3,3-trifluoro-2,2-dimethylpropyl)amino)quinoline-3-carbonitrile]	–

The next lines start with the molecule.

Molecule	IC50 [2, 4] [nM]	IC50 [2, 6] [nM]	further results
6-(((S)-(1-((1R,2R)-2- (difluoromethyl)cyclopropyl)- 1H-1,2,3-triazol-4-yl)(6-fluoro- 2-methylpyridin- 3-yl)methyl)amino)-4- [Example 834]	–	–	EC50 [1]: 68 nM; IC50 [2, 3]: 5 nM
CCc1ncccc1[C@H](Nc1cc(Cl)c2ncc(C#N)c(NCC(C)(C)C)c2c1)c1cn(C2(C(F)F)CC2)nn1 [Example 604, (S)-8-chloro-6-(((1-(1-(difluoromethyl)cyclo-propyl)-1H-1,2,3-triazol-4-yl)(2-ethylpyridin-3-yl)methyl)amino)-4-(neopentylamino)-quinoline-3-carbonitrile]	3	–	–
Cn1ccc2c([C@H](Nc3cc(Cl)c4ncc(C#N)c(NCC(C)(C)C)c4c3)c3cn(C4(C(F)(F)F)CC4)nn3)cccc2c1=O [Example 618, (S)-8-chloro-6-(((2-methyl-1-oxo-1,2-dihydroisoquinolin-5-yl)(1-(1-(trifluoromethyl)cyclopropyl)-1H-1,2,3-triazol-4-yl)methyl)amino)-4-(neopentylamino)quinoline-3-carbonitrile]	3	–	–
CC(C)(C)CNc1c(C#N)cnc2c(C#N)cc(N[C@H](c3cn(C4(C5CC5)CC4)nn3)c3cccc4ncccc34)cc12 [Example 696]	–	–	IC50 [2, 5]: 2 nM
Cc1ncsc1[C@H](Nc1cc(Cl)c2ncc(C#N)c(NCC(C)(C)C)c2c1)c1cn(C2(C(F)(F)F)CC2)nn1 [Example 701, (R)-8-chloro-6-(((4-methylthiazol-5-yl)(1-(1-(trifluoromethyl)cyclopropyl)-1H-1,2,3-triazol-4-yl)methyl)airiino)-4-(neopentylamino)quinoline-3-carbonitrile]	–	–	IC50 [2, 5]: 10 nM
C[C@@H](CF)n1cc([C@@H](Nc2cc(Cl)c3ncc(C#N)c(NCC(C)(C)C)c3c2)c2cccc3ncccc23)nn1 [Example 803, 8-chloro-6-(((S)-(1-((S)-1-fluoropropan-2-yl)-1H-1,2,3-triazol-4-yl)(quinolin-5-yl)methyl)amino)-4-(neopentylamino)quinoline-3-carbonitrile]	–	7	–
CC(C)(C)CNc1c(C#N)cnc2c(C#N)cc(N[C@H](c3cn(C4(C(F)(F)F)CC4)nn3)c3csc4cnccc34)cc12 [Example 855, (S)-4-(neopentylamino)-6-((thieno[2,3-c]pyridin-3-yl(1-(1-(trifluoro-methyl)cyclopropyl)-1H-1,2,3-triazol-4-yl)methyl)-amino)quinoline-3,8-dicarbonitrile]	–	2	–
COc1c([C@@H](Nc2cc(C#N)c3ncc(C#N)c(NCC(C)(C)C)c3c2)c2ccc(F)nc2C)nnn1C1CC1 [Example 859, (S)-6-(((1-cyclopropyl-5-methoxy-1H-1,2,3-triazol-4-yl)(6-fluoro-2-methylpyridin-3-yl)methyl)amino)-4-(neopentylamino)quinoline-3,8-dicarbonitrile]	–	2	–
Cc1nc(F)ccc1[C@H](Nc1cc(C#N)c2ncc(C#N)c(NCC(C)(C)C)c2c1)c1nnn(C2(C3CC3)CC2)c1F [Example 865]	–	–	IC50 [2, 3]: 4 nM
Cc1nc(F)ccc1[C@H](Nc1cc(C#N)c2ncc(C#N)c(NCC(C)(C)C)c2c1)c1cn(C(CF)CF)nn1 [Example 869, (S)-6-(((1-(1,3-difluoropropan-2-yl)-1H-1,2,3-triazol-4-yl)(6-fluoro-2-methylpyridin-3-yl)methyl)amino)-4-(neopentylamino)quinoline-3,8-dicarbonitrile]	–	2	–
Cc1nc(F)ccc1[C@H](Nc1cc(Cl)c2ncc(C#N)c(NCC(C)(C)C)c2c1)c1nnn(C23CC(C2)C3)c1F [Example 951, (S)-6-(((1-(bicyclo[1.1.1]pentan-1-yl)-5-fluoro-1H-1,2,3-triazol-4-yl)(6-fluoro-2-methylpyridin-3-yl)methyl)amino)-8-chloro-4-(neopentylamino)quinoline-3-carbonitrile]	–	9	–
